Experimental data taken from US20090304692A1, “TRIAZINE COMPOUNDS AS PI3 KINASE AND MTOR INHIBITORS” (Wyeth, priority 2008, published 2009).
Where two headings read alike, the source gives them in different places.

How the values were obtained:
[1] = target: mTOR enzymes (Homo sapiens, UniProt P42345); conditions: read-out: mTOR enzymes IC50; cited from earlier work
[2] = test system: human tumor xenograft models; conditions: cited from earlier work
[3] = target: human SMG-1 (hSMG-1) (Homo sapiens, UniProt Q96Q15); assay: hSMG-1 kinase assay (DELFIA); assay type: biochemical
Sequence of human SMG-1 (hSMG-1) (Q96Q15 whole entry): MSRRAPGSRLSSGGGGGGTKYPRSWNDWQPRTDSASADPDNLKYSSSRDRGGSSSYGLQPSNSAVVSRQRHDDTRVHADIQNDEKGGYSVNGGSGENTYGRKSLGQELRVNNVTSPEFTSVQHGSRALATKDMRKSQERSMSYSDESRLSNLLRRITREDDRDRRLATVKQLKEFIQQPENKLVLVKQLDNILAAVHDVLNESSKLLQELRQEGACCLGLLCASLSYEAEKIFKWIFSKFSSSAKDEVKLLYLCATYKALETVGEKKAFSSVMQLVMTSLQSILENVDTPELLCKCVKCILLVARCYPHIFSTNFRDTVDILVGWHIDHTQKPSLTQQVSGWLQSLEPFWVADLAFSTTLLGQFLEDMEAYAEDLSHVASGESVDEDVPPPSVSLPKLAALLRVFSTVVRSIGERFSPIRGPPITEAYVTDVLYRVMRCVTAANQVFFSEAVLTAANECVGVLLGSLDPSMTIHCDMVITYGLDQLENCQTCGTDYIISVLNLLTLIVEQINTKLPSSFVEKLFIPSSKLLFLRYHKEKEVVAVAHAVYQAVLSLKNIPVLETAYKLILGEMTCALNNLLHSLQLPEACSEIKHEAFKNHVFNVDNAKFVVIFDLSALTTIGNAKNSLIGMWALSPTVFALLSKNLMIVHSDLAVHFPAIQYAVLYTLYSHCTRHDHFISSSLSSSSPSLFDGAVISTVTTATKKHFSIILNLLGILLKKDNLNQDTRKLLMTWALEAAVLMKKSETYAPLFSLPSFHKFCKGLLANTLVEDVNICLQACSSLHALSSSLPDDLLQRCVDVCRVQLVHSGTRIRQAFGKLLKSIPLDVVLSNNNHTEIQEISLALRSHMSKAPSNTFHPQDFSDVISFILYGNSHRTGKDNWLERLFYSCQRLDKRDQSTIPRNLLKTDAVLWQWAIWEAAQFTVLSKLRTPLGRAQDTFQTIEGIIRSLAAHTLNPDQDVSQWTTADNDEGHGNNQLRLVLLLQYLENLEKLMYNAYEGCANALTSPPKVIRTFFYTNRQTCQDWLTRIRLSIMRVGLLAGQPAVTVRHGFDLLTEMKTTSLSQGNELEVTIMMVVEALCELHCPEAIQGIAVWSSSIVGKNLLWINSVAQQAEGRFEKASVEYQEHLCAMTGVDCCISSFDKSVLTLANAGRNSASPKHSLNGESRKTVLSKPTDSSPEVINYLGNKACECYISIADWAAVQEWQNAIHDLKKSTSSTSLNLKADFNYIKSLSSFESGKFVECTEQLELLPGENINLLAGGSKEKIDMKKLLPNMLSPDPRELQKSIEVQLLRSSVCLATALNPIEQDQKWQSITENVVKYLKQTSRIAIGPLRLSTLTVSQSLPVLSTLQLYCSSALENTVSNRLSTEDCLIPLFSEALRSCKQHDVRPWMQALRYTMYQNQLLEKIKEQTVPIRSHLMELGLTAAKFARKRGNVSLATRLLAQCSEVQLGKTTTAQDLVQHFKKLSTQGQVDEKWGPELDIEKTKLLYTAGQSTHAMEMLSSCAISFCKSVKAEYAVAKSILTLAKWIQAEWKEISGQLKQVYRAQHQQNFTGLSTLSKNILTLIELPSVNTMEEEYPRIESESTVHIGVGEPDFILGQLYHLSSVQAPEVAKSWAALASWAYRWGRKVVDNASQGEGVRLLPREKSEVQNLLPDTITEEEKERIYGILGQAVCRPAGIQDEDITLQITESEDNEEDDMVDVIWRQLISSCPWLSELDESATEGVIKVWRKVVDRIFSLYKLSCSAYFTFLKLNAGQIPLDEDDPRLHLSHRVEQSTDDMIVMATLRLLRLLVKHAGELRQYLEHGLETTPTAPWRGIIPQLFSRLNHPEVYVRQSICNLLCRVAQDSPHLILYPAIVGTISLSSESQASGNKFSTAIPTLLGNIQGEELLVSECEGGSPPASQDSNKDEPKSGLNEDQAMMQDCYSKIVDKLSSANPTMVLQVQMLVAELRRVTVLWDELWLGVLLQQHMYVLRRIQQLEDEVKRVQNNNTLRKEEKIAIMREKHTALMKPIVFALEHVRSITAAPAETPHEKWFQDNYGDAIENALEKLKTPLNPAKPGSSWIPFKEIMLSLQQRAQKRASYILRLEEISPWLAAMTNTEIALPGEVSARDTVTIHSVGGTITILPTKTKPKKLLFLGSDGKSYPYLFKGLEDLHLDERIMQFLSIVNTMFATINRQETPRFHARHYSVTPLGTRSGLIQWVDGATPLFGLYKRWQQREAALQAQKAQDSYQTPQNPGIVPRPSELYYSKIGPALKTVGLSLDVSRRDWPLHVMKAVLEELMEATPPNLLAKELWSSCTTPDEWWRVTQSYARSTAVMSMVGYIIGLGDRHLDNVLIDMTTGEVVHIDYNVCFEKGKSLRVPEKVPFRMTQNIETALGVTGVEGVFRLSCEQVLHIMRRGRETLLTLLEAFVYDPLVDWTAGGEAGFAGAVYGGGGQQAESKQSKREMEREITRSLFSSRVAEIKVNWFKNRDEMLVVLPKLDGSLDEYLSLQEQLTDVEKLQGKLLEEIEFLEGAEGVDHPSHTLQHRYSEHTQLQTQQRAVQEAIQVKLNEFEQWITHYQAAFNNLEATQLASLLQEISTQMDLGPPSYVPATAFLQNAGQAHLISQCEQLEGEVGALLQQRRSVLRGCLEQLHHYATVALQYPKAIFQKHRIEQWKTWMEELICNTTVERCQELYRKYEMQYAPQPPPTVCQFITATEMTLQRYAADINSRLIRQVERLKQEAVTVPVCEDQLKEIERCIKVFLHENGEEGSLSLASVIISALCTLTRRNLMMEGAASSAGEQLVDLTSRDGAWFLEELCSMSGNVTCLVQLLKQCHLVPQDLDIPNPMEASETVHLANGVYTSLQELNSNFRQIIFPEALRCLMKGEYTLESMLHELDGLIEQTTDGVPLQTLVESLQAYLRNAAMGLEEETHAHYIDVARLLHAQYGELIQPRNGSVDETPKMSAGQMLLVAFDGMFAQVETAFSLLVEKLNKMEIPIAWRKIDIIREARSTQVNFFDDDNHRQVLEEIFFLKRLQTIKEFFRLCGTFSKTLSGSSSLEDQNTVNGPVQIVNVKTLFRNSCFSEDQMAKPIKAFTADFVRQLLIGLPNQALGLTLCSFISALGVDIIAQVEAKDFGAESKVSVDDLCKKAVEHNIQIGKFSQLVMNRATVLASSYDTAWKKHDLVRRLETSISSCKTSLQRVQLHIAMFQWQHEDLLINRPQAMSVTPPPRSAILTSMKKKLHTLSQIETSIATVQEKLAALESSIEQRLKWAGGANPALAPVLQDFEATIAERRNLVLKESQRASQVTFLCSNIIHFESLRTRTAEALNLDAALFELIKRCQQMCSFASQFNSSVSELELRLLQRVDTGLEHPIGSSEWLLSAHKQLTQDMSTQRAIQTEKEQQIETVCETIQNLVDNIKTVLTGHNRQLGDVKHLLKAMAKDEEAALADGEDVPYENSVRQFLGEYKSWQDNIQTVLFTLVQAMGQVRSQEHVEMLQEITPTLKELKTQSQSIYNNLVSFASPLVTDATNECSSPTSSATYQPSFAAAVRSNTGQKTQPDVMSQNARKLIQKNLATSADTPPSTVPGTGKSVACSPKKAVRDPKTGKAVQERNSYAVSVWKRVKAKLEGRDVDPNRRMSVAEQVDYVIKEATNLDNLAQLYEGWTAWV

[4] = test system: human prostate LNCap tumor cell line; assay: In vitro cell culture growth assay (MTS), LNCap; conditions: Homo sapiens, LNCaP, 72 h, read-out: IC50 LNCap
[5] = target: Human mTOR (FLAG-TOR) (Homo sapiens, UniProt P42345); assay: mTOR kinase assay (DELFIA format, purified enzyme); assay type: biochemical; conditions: read-out: IC50 mTOR
[6] = target: PI3K-α (Homo sapiens, UniProt P42336); assay: PI3K-alpha fluorescence polarization assay; conditions: read-out: IC50 PI3Kα
[7] = target: PI3K-γ (Homo sapiens, UniProt P48736); assay: PI3K-gamma fluorescence polarization assay; conditions: read-out: IC50 PI3Kγ
Sequence of PI3K-γ (P48736 whole entry, species assumed): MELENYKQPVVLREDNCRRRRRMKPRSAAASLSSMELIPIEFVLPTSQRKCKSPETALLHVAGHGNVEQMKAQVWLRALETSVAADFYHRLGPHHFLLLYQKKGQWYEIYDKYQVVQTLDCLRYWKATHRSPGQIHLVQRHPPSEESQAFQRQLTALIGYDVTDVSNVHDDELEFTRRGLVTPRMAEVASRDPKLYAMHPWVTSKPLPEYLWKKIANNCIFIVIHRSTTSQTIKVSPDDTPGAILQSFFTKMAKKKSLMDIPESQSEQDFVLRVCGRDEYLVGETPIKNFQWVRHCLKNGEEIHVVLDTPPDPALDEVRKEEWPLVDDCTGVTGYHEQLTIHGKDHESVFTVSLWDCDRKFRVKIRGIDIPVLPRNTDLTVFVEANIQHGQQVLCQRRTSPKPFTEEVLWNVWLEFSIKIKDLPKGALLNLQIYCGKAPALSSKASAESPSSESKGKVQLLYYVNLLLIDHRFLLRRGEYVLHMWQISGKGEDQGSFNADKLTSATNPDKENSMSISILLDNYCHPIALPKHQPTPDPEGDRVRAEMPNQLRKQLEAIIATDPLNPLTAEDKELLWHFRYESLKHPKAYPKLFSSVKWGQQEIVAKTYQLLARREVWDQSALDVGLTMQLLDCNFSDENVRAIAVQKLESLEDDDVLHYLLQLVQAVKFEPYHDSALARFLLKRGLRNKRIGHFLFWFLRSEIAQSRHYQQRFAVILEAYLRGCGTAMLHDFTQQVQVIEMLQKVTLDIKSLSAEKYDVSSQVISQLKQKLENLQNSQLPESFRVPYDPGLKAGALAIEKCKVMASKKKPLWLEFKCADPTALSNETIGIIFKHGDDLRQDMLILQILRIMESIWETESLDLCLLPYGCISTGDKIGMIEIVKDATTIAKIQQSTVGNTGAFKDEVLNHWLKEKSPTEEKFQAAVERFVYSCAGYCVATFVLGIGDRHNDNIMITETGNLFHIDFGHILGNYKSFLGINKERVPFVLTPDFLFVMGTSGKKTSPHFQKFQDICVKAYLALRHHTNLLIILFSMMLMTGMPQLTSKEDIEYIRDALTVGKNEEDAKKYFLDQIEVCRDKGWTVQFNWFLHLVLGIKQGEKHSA

[8] = test system: human prostate PC3-mm2 tumor cell line; assay: In vitro cell culture growth assay (MTS), PC3-mm2; assay type: cell-based; conditions: Homo sapiens, PC3MM2, 72 h, MTS cell growth assay, three days after drug treatment; read-out: IC50 PC3-mm2
[9] = test system: human breast MDA-MB-361 tumor cell line; assay: In vitro cell culture growth assay (MTS), MDA-MB-361; assay type: cell-based; conditions: Homo sapiens, MDA-MB-361, 72 h; MTS cell growth assay, three days after drug treatment; read-out: IC50 MDA-MB-361
[10] = test system: acute lymphoblastic leukemia xenograft; conditions: NOS/SCID xenograft mouse model of acute lymphoblastic leukemia; cited from earlier work

Structure (SMILES): FC(F)c1nc2ccccc2n1-c1nc(N2CCOCC2)nc(N2CCOCC2)n1 [ZSTK474, 2-(2-difluoromethylbenzoimidazol-1-yl)-4,6-dimorpholino-1,3,5-triazine]
- IC50 [1]: > 10 µM
- growth of human xenograft tumors ([2]; chronic oral administration, 400 mg/kg, mouse, A549, PC-3, WiDr): completely inhibited growth

Structure (SMILES): CNC(=O)Nc1ccc(-c2nc(-c3ccc(NC(=O)Nc4ccncc4)cc3)nc(N3C(C)COCC3C)n2)cc1 (stereo not drawn) [Example 472, 1-{4-[4-(3,5-dimethylmorpholin-4-yl)-6-{4-[(methylcarbamoyl)amino]phenyl}-1,3,5-triazin-2-yl]phenyl}-3-pyridin-4-ylurea]
- IC50 [3]: 0.2 µM
- IC50 [4]: 3.8 µM
- IC50 [5]: 0.035 µM

Structure (SMILES): CC(C)(C)OC(=O)N1C[C@H]2C[C@@H]1CN2c1nc(-c2ccc(NC(=O)Nc3ccncc3)cc2)nc(N2CCOCC2)n1 [Example 256, tert-butyl(1R,4R)-5-(4-morpholin-4-yl-6-{4-[(pyridin-4-ylcarbamoyl)amino]phenyl}-1,3,5-triazin-2-yl)-2,5-diazabicyclo[2.2.1]heptane-2-carboxylate]
- IC50 [6]: 0.068 µM
- IC50 [7]: 0.182 µM
- IC50 [5]: 0.032 µM
- melting point: 192 °C

Structure (SMILES): Oc1cccc(-c2nc(N3CCOCC3)c3oc4ncccc4c3n2)c1 [PI103, 3-(4-(4-morpholinyl)pyrido[3′,2′:4,5]furo[3,2-d]pyrimidin-2-yl)phenol]
- activity against human tumor models ([2]; I.P. dosing in mice, U87MG, PC3, MDA-MB-468, MDA-MB-435, HCT 116, SKOV3, IGROV-1 xenografts): demonstrated activity

Structure (SMILES): O=C(Nc1ccncc1)Nc1ccc(-c2nc(N3CCC3)nc(N3CCOCC3)n2)cc1 [Example 140, 1-[4-(4-azetidin-1-yl-6-morpholin-4-yl-1,3,5-triazin-2-yl)phenyl]-3-pyridin-4-ylurea]
- IC50 [6]: 0.027 µM
- IC50 [8]: 0.279 µM
- IC50 [9]: 0.225 µM
- IC50 [7]: 0.1 µM
- IC50 [5]: 0.027 µM
- melting point: 212 °C

Structure (SMILES): CNC(=O)Nc1ccc(-c2nc(-c3ccc(NC(=O)Nc4cccc(C(N)=O)c4)cc3)nc(N3C(C)COCC3C)n2)cc1 (stereo not drawn) [Example 469, 3-[({4-[4-(3,5-dimethylmorpholin-4-yl)-6-{4-[(methylcarbamoyl)amino]phenyl}-1,3,5-triazin-2-yl]phenyl}carbamoyl)amino]benzamide]
- IC50 [3]: 0.13 µM
- IC50 [4]: 2.8 µM
- IC50 [5]: 0.023 µM

Structure (SMILES): CC(=O)c1ccc(NC(=O)Nc2ccc(-c3nc(N4CCOCC4)nc(N4C[C@H]5C[C@@H]4CN5C(=O)OC(C)(C)C)n3)cc2)cc1 [Example 257, tert-butyl (1R,4R)-5-[4-(4-{[(4-acetylphenyl)carbamoyl]amino}phenyl)-6-morpholin-4-yl-1,3,5-triazin-2-yl]-2,5-diazabicyclo[2.2.1]heptane-2-carboxylate]
- IC50 [6]: 0.09 µM
- IC50 [7]: 0.323 µM
- IC50 [5]: 0.085 µM
- melting point: 202 °C

Structure (SMILES): CN1CCN(C(=O)c2ccc(NC(=O)Nc3ccc(-c4nc(N5CCC5)nc(N5CCOCC5)n4)cc3)cc2)CC1 [Example 196, 1-[4-(4-azetidin-1-yl-6-morpholin-4-yl-1,3,5-triazin-2-yl)phenyl]-3-{4-[(4-methylpiperazin-1-yl)carbonyl]phenyl}urea]
- IC50 [6]: 0.006 µM
- IC50 [8]: 0.082 µM
- IC50 [9]: 0.05 µM
- IC50 [7]: 0.055 µM
- IC50 [5]: 0.013 µM
- melting point: 170 °C

Structure (SMILES): O=C(Nc1ccc(C(=O)NCc2ccccn2)cc1)Nc1ccc(-c2nc(N3CCOCC3)nc(N3CCOCC3)n2)cc1 [Example 263, 4-({[4-(4,6-dimorpholin-4-yl-1,3,5-triazin-2-yl)phenyl]carbamoyl}amino)-N-(pyridin-2-ylmethyl)benzamide]
- IC50 [6]: 0.003 µM
- IC50 [8]: 0.031 µM
- IC50 [9]: 0.068 µM
- IC50 [7]: 0.02 µM
- IC50 [5]: 0.001 µM
- melting point: 296 to 298 °C

Structure (SMILES): O=C(Nc1ccc(C(=O)O)cc1)Nc1ccc(-c2nc(N3CCC3)nc(N3CCOCC3)n2)cc1 [Example 195, 4-({[4-(4-azetidin-1-yl-6-morpholin-4-yl-1,3,5-triazin-2-yl)phenyl]carbamoyl}amino) benzoic acid]
- IC50 [6]: 0.115 µM
- IC50 [7]: 0.498 µM
- IC50 [5]: 0.021 µM
- melting point: 204 °C

Structure (SMILES): CO[C@H]1C[C@@H]2CC[C@@H](C)[C@@](O)(O2)C(=O)C(=O)N2CCCC[C@H]2C(=O)O[C@H]([C@H](C)C[C@@H]2CC[C@@H](OC(=O)C(C)(CO)CO)[C@H](OC)C2)CC(=O)[C@H](C)/C=C(\C)[C@@H](O)[C@@H](OC)C(=O)[C@H](C)C[C@H](C)/C=C/C=C/C=C/1C [Torisel]
- activity in xenograft mouse model [10]: active

Structure (SMILES): CNC(=O)Nc1ccc(-c2nc(-c3ccc(NC(=O)Nc4ccc(C(N)=O)cc4)cc3)nc(N3C(C)COCC3C)n2)cc1 (stereo not drawn) [Example 470, 4-[({4-[4-(3,5-dimethylmorpholin-4-yl)-6-{4-[(methylcarbamoyl)amino]phenyl}-1,3,5-triazin-2-yl]phenyl}carbamoyl)amino]benzamide]
- IC50 [3]: 0.195 µM
- IC50 [4]: 1 µM
- IC50 [5]: 0.007 µM

Structure (SMILES): COC(=O)c1ccc(NC(=O)Nc2ccc(-c3nc(C(C)C)nc(N4CCOCC4)n3)cc2)cc1 [Example 300, methyl 4-[({4-[4-(1-methylethyl)-6-morpholin-4-yl-1,3,5-triazin-2-yl]phenyl}carbamoyl)amino]benzoate]
- IC50 [6]: 0.039 µM
- IC50 [8]: 0.34 µM
- IC50 [9]: 0.297 µM
- IC50 [7]: 0.106 µM
- IC50 [5]: 0.0053 µM
- melting point: 218 °C

Structure (SMILES): O=C(Nc1ccncc1)Nc1ccc(-c2nc(OC3CCOCC3)nc(N3CCOCC3)n2)cc1 [Example 59, 1-{4-[4-morpholin-4-yl-6-(tetrahydro-2H-pyran-4-yloxy)-1,3,5-triazin-2-yl]phenyl}-3-pyridin-4-ylurea]
- IC50 [6]: 0.003 µM
- IC50 [8]: 0.016 µM
- IC50 [9]: 0.014 µM
- IC50 [7]: 0.03 µM
- IC50 [5]: 0.00105 µM
- melting point: 238 °C

Structure (SMILES): O=C(Nc1ccncc1)Nc1ccc(-c2nc(N3CCOCC3)nc(N3CC4CCC(C3)O4)n2)cc1 [Example 48, 1-{4-[4-morpholin-4-yl-6-(8-oxa-3-azabicyclo[3.2.1]oct-3-yl)-1,3,5-triazin-2-yl]phenyl}-3-pyridin-4-ylurea]
- IC50 [6]: 0.006 µM
- IC50 [8]: 0.048 µM
- IC50 [9]: 0.038 µM
- IC50 [7]: 0.04 µM
- IC50 [5]: 0.0018 µM
- melting point: 258 °C

Structure (SMILES): Cn1c(=O)n(-c2ccc(C(C)(C)C#N)cc2)c2c3cc(-c4cnc5ccccc5c4)ccc3ncc21 [NVP-BEZ-235, 2-methyl-2-(4-(3-methyl-2-oxo-8-(quinolin-3-yl)-2,3-dihydro-1H-imidazo[4,5-c]quinolin-1-yl)phenyl)propanenitrile]
- activity against human tumor models ([2]; prostrate (PC-3) and glioblastoma (U-87) xenografts): demonstrated activity

Structure (SMILES): COC(=O)c1ccc(NC(=O)Nc2ccc(-c3nc(N4CCC4)nc(N4CCOCC4)n3)cc2)cc1 [Example 141, methyl 4-({[4-(4-azetidin-1-yl-6-morpholin-4-yl-1,3,5-triazin-2-yl)phenyl]carbamoyl}amino)benzoate]
- IC50 [6]: 0.241 µM
- IC50 [7]: 3.38 µM
- IC50 [5]: 0.026 µM
- melting point: 212 °C
